Starred links: 1 amine or outer side, 2 acyl side, 3 side chain; linkers in the order of their positions; H or OH if unused. Positions of bridges follow the written chain, without caps; N, C: chain ends. Non-standard residues stand in square brackets, D forms with d. Residues, ends and D or L forms follow the SMILES beside them. Groups on a side chain read outwards from the residue. *: point of attachment. (Piperazine-1-yl)‑acetyl = piperazin-1-yl-acetyl spacer, O=C(CN1CCN([*:1])CC1)[*:2]; Trp(1-Me) = Cn1cc(C[C@H](N)C(=O)O)c2ccccc21; C18 diacid = O=C(O)CCCCCCCCCCCCCCCCC(=O)*; C16 diacid = O=C(O)CCCCCCCCCCCCCCC(=O)*; γGlu = O=C(O)[C@H](CCC(=O)[*:2])N[*:1]; AEEA = NCCOCCOCC(=O)O; Sar = CNCC(=O)O
B1: Compound 94 (peptide)
peptide: Ac-ICIWQDWGEHRCTEGEK([AEEA-AEEA-γGlu-C16 diacid])-NH2
modifications: disulfide 2-12
SMILES: CC[C@H](C)[C@H](NC(C)=O)C(=O)N[C@H]1CSSC[C@@H](C(=O)N[C@H](C(=O)N[C@@H](CCC(=O)O)C(=O)NCC(=O)N[C@@H](CCC(=O)O)C(=O)N[C@@H](CCCCNC(=O)COCCOCCNC(=O)COCCOCCNC(=O)CC[C@H](NC(=O)CCCCCCCCCCCCCCC(=O)O)C(=O)O)C(N)=O)[C@@H](C)O)NC(=O)[C@H](CCCNC(=N)N)NC(=O)[C@H](Cc2c[nH]cn2)NC(=O)[C@H](CCC(=O)O)NC(=O)CNC(=O)[C@H](Cc2c[nH]c3ccccc23)NC(=O)[C@H](CC(=O)O)NC(=O)[C@H](CCC(N)=O)NC(=O)[C@H](Cc2c[nH]c3ccccc23)NC(=O)[C@H]([C@@H](C)CC)NC1=O
B2: Compound 96 (peptide)
peptide: Ac-ICIWQDWGEHRCTEGK([AEEA-AEEA-γGlu-C18 diacid])-NH2
modifications: disulfide 2-12
SMILES: CC[C@H](C)[C@H](NC(C)=O)C(=O)N[C@H]1CSSC[C@@H](C(=O)N[C@H](C(=O)N[C@@H](CCC(=O)O)C(=O)NCC(=O)N[C@@H](CCCCNC(=O)COCCOCCNC(=O)COCCOCCNC(=O)CC[C@H](NC(=O)CCCCCCCCCCCCCCCCC(=O)O)C(=O)O)C(N)=O)[C@@H](C)O)NC(=O)[C@H](CCCNC(=N)N)NC(=O)[C@H](Cc2c[nH]cn2)NC(=O)[C@H](CCC(=O)O)NC(=O)CNC(=O)[C@H](Cc2c[nH]c3ccccc23)NC(=O)[C@H](CC(=O)O)NC(=O)[C@H](CCC(N)=O)NC(=O)[C@H](Cc2c[nH]c3ccccc23)NC(=O)[C@H]([C@@H](C)CC)NC1=O

What was measured:
[1] = system: classical complement pathway; experiment: In vitro haemolysis assay (inhibition of classical complement pathway); format: cell-based, human; details: human serum, sensitized sheep red blood cells; Table 3, given as upper bounds; read-out: IC50, inhibition of hemolysis
Method in brief: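 Compound dilutions preincubated 15 min at room temperature with diluted human serum (titrated per batch for 70-90% maximal haemolysis), then antibody-sensitized sheep RBC (10^7/well) added for 30 min at 37 °C in Tris/casein buffer, pH 7.4. Stopped with EDTA; haemolysis read at 405 nm; IC50 by 4PL fit.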

[2] = Solubility test at 10 mg/mL (visual inspection and light scattering); format: physicochemical; details: for Solubility, Condition 1: Acetate pH 4; for Solubility, Condition 2: Acetate pH 5; for Solubility, Condition 3: Phosphate pH 6; for Solubility, Condition 4: Phosphate pH 7; for Solubility, Condition 5: Phosphate pH 7.5
[3] = target: Human C3 (Complement tech cat #A113c) (human, UniProt P01024 23-1663); experiment: cell-based or functional assay
Chain of Human C3 (Complement tech cat #A113c) (P01024 23-1663 limits assumed): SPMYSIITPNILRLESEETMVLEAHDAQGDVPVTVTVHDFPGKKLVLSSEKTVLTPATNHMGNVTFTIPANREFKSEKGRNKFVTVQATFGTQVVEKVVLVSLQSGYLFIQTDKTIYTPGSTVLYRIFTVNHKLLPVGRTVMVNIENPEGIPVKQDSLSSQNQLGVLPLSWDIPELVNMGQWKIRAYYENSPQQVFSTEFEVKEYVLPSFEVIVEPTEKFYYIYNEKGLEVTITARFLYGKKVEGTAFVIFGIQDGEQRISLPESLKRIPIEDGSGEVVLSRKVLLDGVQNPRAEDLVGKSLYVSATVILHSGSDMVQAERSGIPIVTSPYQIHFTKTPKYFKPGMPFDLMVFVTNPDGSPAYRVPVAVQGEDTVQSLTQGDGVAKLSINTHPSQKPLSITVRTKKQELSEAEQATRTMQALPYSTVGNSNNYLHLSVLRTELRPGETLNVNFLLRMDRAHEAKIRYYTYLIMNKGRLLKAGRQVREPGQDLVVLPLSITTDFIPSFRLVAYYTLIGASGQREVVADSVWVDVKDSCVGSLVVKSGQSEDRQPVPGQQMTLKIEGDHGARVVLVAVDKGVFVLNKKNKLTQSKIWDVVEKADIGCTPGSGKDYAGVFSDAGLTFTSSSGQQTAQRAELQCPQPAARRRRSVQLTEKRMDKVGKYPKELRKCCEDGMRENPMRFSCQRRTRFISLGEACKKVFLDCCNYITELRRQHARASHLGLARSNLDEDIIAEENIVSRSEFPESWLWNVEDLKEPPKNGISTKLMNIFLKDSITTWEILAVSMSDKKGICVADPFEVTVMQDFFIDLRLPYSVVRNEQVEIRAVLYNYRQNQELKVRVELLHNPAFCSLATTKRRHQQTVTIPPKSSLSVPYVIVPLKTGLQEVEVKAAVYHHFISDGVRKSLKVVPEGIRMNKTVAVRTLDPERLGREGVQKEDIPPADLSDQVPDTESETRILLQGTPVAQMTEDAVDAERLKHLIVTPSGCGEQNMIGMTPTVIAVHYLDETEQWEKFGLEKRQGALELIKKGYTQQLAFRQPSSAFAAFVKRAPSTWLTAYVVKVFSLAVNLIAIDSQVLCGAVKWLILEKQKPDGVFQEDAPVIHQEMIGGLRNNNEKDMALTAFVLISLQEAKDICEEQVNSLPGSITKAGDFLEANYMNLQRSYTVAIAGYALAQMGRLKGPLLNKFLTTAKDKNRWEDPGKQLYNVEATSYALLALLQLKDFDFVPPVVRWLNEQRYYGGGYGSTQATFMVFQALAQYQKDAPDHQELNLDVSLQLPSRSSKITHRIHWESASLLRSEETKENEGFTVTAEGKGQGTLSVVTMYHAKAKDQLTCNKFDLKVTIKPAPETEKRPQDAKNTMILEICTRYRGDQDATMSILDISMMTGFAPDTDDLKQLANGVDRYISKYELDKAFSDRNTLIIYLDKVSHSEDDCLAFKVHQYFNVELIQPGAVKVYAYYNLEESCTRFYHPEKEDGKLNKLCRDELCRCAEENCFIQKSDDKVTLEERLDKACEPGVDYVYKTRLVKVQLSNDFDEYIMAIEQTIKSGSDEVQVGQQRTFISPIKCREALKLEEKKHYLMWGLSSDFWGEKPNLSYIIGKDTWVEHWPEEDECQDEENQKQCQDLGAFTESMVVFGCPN

Molecule	IC50 [1] [nM]	Solubility, Condition 1 [2]	Solubility, Condition 2 [2]	Solubility, Condition 3 [2]	Solubility, Condition 4 [2]	Solubility, Condition 5 [2]	inhibition of hemolysis IC50 [3] [nM]
CC[C@H](C)[C@H](NC(=O)[C@H](C)NC(=O)[C@H](CO)NC(=O)[C@H](CO)NC(=O)[C@H](CCC(=O)O)NC(C)=O)C(=O)N[C@H]1CSSC[C@@H](C(=O)N[C@H](C(=O)NCC(=O)N[C@@H](C)C(=O)N[C@@H](CCC(=O)O)C(=O)N[C@@H](CO)C(N)=O)[C@@H](C)O)NC(=O)[C@H](CCCNC(=N)N)NC(=O)[C@H](Cc2c[nH]cn2)NC(=O)[C@H](CCC(=O)O)NC(=O)CNC(=O)[C@H](Cc2c[nH]c3ccccc23)NC(=O)[C@H](CC(=O)O)NC(=O)[C@H](CCC(N)=O)NC(=O)[C@H](Cc2c[nH]c3ccccc23)NC(=O)[C@H]([C@@H](C)CC)NC1=O [Compound 14] (Ac-ESSAICIWQDWGEHRCTGAES-NH2; disulfide 6-16)	< 100	+ (“+” denotes solubility at the given condition, as determined by UV absorbance being less than 0.1 AU at 340 nm and the sample being clear when manually inspected)	− (“−” denotes lack of solubility at the given condition, as UV absorbance at 340 nm exceeds 0.1 AU and/or it is visibly turbid or contains particles)	− (“−” denotes lack of solubility at the given condition, as UV absorbance at 340 nm exceeds 0.1 AU and/or it is visibly turbid or contains particles)	+ (“+” denotes solubility at the given condition, as determined by UV absorbance being less than 0.1 AU at 340 nm and the sample being clear when manually inspected)	+ (“+” denotes solubility at the given condition, as determined by UV absorbance being less than 0.1 AU at 340 nm and the sample being clear when manually inspected)	–
CC[C@H](C)[C@H](NC(=O)[C@H](C)NC(=O)[C@H](CO)NC(=O)CNC(=O)[C@H](CCC(=O)O)NC(C)=O)C(=O)N[C@H]1CSSC[C@@H](C(=O)N[C@H](C(=O)N[C@@H](CCC(=O)O)C(N)=O)[C@@H](C)O)NC(=O)[C@H](CCCNC(=N)N)NC(=O)[C@H](Cc2c[nH]cn2)NC(=O)[C@H](CCC(=O)O)NC(=O)CNC(=O)[C@H](Cc2c[nH]c3ccccc23)NC(=O)[C@H](CC(=O)O)NC(=O)[C@H](CCC(N)=O)NC(=O)[C@H](Cc2c[nH]c3ccccc23)NC(=O)[C@H]([C@@H](C)CC)NC1=O [Compound 55] (Ac-EGSAICIWQDWGEHRCTE-NH2; disulfide 6-16)	< 250	− (“−” denotes lack of solubility at the given condition, as UV absorbance at 340 nm exceeds 0.1 AU and/or it is visibly turbid or contains particles)	− (“−” denotes lack of solubility at the given condition, as UV absorbance at 340 nm exceeds 0.1 AU and/or it is visibly turbid or contains particles)	+ (“+” denotes solubility at the given condition, as determined by UV absorbance being less than 0.1 AU at 340 nm and the sample being clear when manually inspected)	+ (“+” denotes solubility at the given condition, as determined by UV absorbance being less than 0.1 AU at 340 nm and the sample being clear when manually inspected)	+ (“+” denotes solubility at the given condition, as determined by UV absorbance being less than 0.1 AU at 340 nm and the sample being clear when manually inspected)	–
CC[C@H](C)[C@@H]1NC(=O)[C@@H](NC(=O)[C@H](Cc2ccc(O)cc2)NC(=O)[C@H](C)NC(=O)[C@H](CO)NC(=O)CNC(=O)[C@H](CCC(=O)O)NC(C)=O)CSSC[C@@H](C(=O)N(C)CC(=O)N[C@@H](CCC(=O)O)C(=O)NCC(=O)N[C@@H](CCC(=O)O)C(=O)N[C@@H](CCCCNC(=O)CC[C@H](NC(=O)CNC(=O)CC[C@H](NC(=O)CCCCCCCCCCCCCCCCC(=O)O)C(=O)O)C(=O)O)C(N)=O)NC(=O)[C@H](CCCNC(=N)N)NC(=O)[C@H](Cc2c[nH]cn2)NC(=O)[C@H](CCC(=O)O)NC(=O)CNC(=O)[C@H](Cc2c[nH]c3ccccc23)NC(=O)[C@H](CC(=O)O)NC(=O)[C@H](CCC(N)=O)NC(=O)[C@H](Cc2cn(C)c3ccccc23)NC1=O [Compound 109] (Ac-EGSAYCI[Trp(1-Me)]QDWGEHRC[Sar]EGEK([γGlu-Gly-γGlu-C18 diacid])-NH2; disulfide 6-16)	< 250	− (“−” denotes lack of solubility at the given condition, as UV absorbance at 340 nm exceeds 0.1 AU and/or it is visibly turbid or contains particles)	+ (“+” denotes solubility at the given condition, as determined by UV absorbance being less than 0.1 AU at 340 nm and the sample being clear when manually inspected)	+ (“+” denotes solubility at the given condition, as determined by UV absorbance being less than 0.1 AU at 340 nm and the sample being clear when manually inspected)	+ (“+” denotes solubility at the given condition, as determined by UV absorbance being less than 0.1 AU at 340 nm and the sample being clear when manually inspected)	+ (“+” denotes solubility at the given condition, as determined by UV absorbance being less than 0.1 AU at 340 nm and the sample being clear when manually inspected)	–
CC[C@H](C)[C@@H]1NC(=O)[C@@H](NC(=O)[C@@H](NC(=O)[C@H](CCC(=O)O)NC(=O)[C@H](CO)NC(=O)[C@H](CCC(=O)O)NC(C)=O)[C@@H](C)CC)CSSC[C@@H](C(=O)N[C@@H](CCC(=O)O)C(=O)NCC(=O)N[C@@H](CCC(=O)O)C(N)=O)NC(=O)[C@H](CCCNC(=N)N)NC(=O)[C@H](Cc2c[nH]cn2)NC(=O)[C@H](CCC(=O)O)NC(=O)CNC(=O)[C@H](Cc2c[nH]c3ccccc23)NC(=O)[C@H](CC(=O)O)NC(=O)[C@H](CCC(N)=O)NC(=O)[C@H](Cc2c[nH]c3ccccc23)NC1=O [Compound 36] (Ac-ESEICIWQDWGEHRCEGE-NH2; disulfide 5-15)	< 250	− (“−” denotes lack of solubility at the given condition, as UV absorbance at 340 nm exceeds 0.1 AU and/or it is visibly turbid or contains particles)	− (“−” denotes lack of solubility at the given condition, as UV absorbance at 340 nm exceeds 0.1 AU and/or it is visibly turbid or contains particles)	− (“−” denotes lack of solubility at the given condition, as UV absorbance at 340 nm exceeds 0.1 AU and/or it is visibly turbid or contains particles)	+ (“+” denotes solubility at the given condition, as determined by UV absorbance being less than 0.1 AU at 340 nm and the sample being clear when manually inspected)	+ (“+” denotes solubility at the given condition, as determined by UV absorbance being less than 0.1 AU at 340 nm and the sample being clear when manually inspected)	–
CC[C@H](C)[C@H](NC(=O)[C@H](C)NC(=O)[C@H](CO)NC(=O)CNC(C)=O)C(=O)N[C@H]1CSSC[C@@H](C(=O)N(C)CC(=O)N[C@@H](CCC(=O)O)C(N)=O)NC(=O)[C@H](CCCNC(=N)N)NC(=O)[C@H](Cc2c[nH]cn2)NC(=O)[C@H](CCC(=O)O)NC(=O)CNC(=O)[C@H](Cc2c[nH]c3ccccc23)NC(=O)[C@H](CC(=O)O)NC(=O)[C@H](CCC(N)=O)NC(=O)[C@H](Cc2c[nH]c3ccccc23)NC(=O)[C@H]([C@@H](C)CC)NC1=O [Compound 40] (Ac-GSAICIWQDWGEHRC[Sar]E-NH2; disulfide 5-15)	< 250	− (“−” denotes lack of solubility at the given condition, as UV absorbance at 340 nm exceeds 0.1 AU and/or it is visibly turbid or contains particles)	− (“−” denotes lack of solubility at the given condition, as UV absorbance at 340 nm exceeds 0.1 AU and/or it is visibly turbid or contains particles)	+ (“+” denotes solubility at the given condition, as determined by UV absorbance being less than 0.1 AU at 340 nm and the sample being clear when manually inspected)	+ (“+” denotes solubility at the given condition, as determined by UV absorbance being less than 0.1 AU at 340 nm and the sample being clear when manually inspected)	+ (“+” denotes solubility at the given condition, as determined by UV absorbance being less than 0.1 AU at 340 nm and the sample being clear when manually inspected)	–
B1	–	–	–	–	–	–	< 500
Ac-ICIWQDWGEHRCTEGK([AEEA-AEEA-(Piperazine-1-yl)‑acetyl-C16 diacid])-NH2 (disulfide 2-12) [Compound 95]	–	–	–	–	–	–	< 500
B2	–	–	–	–	–	–	< 1000

— US11965039B2, “Compstatin analogues and their medical uses” (priority 2018, dated 2024)
